For 8 compounds, IC50 results are on record in patent US20250215029A1 (Recludix Pharma, Inc., priority 2022, published 2025).

The target in test [1] is T1, Recombinant STAT3 protein (STAT3 (G127-I722)) (Homo sapiens, UniProt P40763).
T1 construct: Recombinant STAT3 protein (STAT3 (G127-I722))
Kind of test: STAT3 Fluorescence Polarization (FP) Assay. It counts as binding. The note with it: probe 5-FAM-GpYLPQTV-NH2 2 nM, 45-minute incubation. Put shortly: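 Displacement of a fluorescent phosphotyrosine peptide (5-FAM-GpYLPQTV-NH2, 2 nM) from 25 nM recombinant STAT3 G127-I722 was monitored by FP after 45 min at room temperature.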
Background: Polarisation of emitted light reports the rotation of a fluorescent probe.

Test [2] deals with T2, Recombinant STAT6 protein (STAT6 (W123-T658)) (Homo sapiens, UniProt P42226).
T2 construct: Recombinant STAT6 protein (STAT6 (W123-T658))
T2 sequence (P42226 123-658): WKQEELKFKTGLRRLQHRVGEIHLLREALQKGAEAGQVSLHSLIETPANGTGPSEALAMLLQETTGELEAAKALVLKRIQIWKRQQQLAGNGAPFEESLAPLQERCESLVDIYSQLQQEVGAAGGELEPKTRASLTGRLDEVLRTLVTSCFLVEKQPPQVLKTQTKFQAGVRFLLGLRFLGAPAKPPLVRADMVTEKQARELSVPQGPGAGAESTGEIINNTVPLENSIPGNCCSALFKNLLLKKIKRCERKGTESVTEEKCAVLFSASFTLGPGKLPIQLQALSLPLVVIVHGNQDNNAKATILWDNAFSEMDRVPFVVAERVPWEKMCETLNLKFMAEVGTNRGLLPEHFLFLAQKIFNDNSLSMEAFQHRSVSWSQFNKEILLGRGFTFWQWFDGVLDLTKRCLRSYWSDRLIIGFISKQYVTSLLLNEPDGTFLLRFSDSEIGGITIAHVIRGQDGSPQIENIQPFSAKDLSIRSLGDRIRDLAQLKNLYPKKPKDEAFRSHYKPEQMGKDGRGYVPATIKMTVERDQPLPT
Kind of test: STAT6 Fluorescence Polarization (FP) Assay. It counts as binding. The conditions noted are these: 45-minute incubation. A digest of the protocol: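 Serially diluted compounds received a premix of STAT6 (W123-T658, 250 nM) and 5-FAM peptide probe (2 nM) in pH 7.4 HEPES buffer containing DTT and Tween 20. Following 45 min at room temperature, FP was recorded. IC50s were fitted by nonlinear regression; values are binned A (≤300 nM), B (>300-3000 nM), C (>3-30 μM), D (>30 μM).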

The mark [3] stands for this setting: STAT3 (G127-I722) 25 nM, read-out: STAT3 (FP assay IC50 class).
[4] abbreviates: STAT6 (W123-T658) 250 nM, probe 5-FAM-Ap[…]-NH2 2 nM, read-out: STAT6 (FP assay IC50 class).
[5] abbreviates: STAT3 25 nM, read-out: STAT3 (FP assay IC50).

Like-named read-outs stand apart in the source and are kept apart here.

T1 sequence (P40763 127-722): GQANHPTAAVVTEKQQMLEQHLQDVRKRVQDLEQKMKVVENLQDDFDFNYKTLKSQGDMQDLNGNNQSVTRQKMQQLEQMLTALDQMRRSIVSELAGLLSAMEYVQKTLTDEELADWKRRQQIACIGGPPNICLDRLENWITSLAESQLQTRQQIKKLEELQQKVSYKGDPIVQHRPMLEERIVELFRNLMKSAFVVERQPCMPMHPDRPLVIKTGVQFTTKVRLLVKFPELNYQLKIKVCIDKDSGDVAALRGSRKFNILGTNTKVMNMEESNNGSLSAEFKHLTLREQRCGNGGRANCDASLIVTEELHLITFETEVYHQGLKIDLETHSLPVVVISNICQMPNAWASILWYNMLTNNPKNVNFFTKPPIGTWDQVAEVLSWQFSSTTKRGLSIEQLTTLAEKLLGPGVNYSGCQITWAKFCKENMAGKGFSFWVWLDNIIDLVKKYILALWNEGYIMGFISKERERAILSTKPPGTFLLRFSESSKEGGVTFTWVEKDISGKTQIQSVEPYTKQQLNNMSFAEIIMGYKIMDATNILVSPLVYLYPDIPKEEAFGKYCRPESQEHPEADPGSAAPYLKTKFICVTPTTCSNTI

In the case of `COc1ccn(C2CN(C(=O)[C@@H]3CC[C@@H]4CCC[C@H](NC(=O)c5cc6cc(C(F)P(=O)(O)O)ccc6s5)C(=O)N43)C2)n1` (stereo partly drawn) [Compound 633, (fluoro(2-(((3S,6S,9aS)-3-(3-(3-methoxy-1H-pyrazol-1-yl)azetidine-1-carbonyl)-5-oxooctahydro-1H-pyrrolo[1,2-a]azepin-6-yl)carbamoyl)benzo [b]thiophen-5-yl)methyl) phosphonic acid], the IC50 was 100 to 1000 nM in test [1] (setting [3]) and 3000 to 30000 nM in test [2] (setting [4]).
With `N#C[C@@H]1[C@@H](c2cncc(Cl)c2)CN(C(=O)[C@@H]2CC[C@@H]3CCC[C@H](NC(=O)c4cc5cc([C@H](F)P(=O)(O)O)ccc5s4)C(=O)N32)C12CC2` (single isomer, unassigned) [Compound 842], the IC50 fell in the range of 1000 to 10000 nM in test [1] (setting [3]) and 300 to 3000 nM in test [2] (STAT6 (W123-T658) 250 nM, probe 5-FAM-ApYKPFQDLI-NH2 2 nM, read-out: STAT6 (FP assay IC50 class)).
`N#C[C@@H]1CN(C(=O)[C@@H]2CCC[C@@H]3CCC[C@H](NC(=O)c4cc5cc(C(F)(F)P(=O)(O)O)ccc5s4)C(=O)N32)C[C@H]1c1ccccc1` (single isomer, unassigned) [Compound 107, ((2-(((4S,7S,10aS)-4-((3S,4R or 3R,4S)-3-cyano-4-phenylpyrrolidine-1-carbonyl)-6-oxodecahydropyrido [1,2-a]azepin-7-yl)carbamoyl)benzo[b]thiophen-5-yl)difluoromethyl) phosphonic acid]: the 50% inhibitory concentration (IC50) was 100 to 1000 nM in test [1] (setting [5]) and not above 300 nM in test [2] (STAT6 250 nM, probe 5-FAM-ApYKPFQDLI-NH2 2 nM, read-out: STAT6 (FP assay IC50)).
As for `CCC[C@@H]1CC[C@H](NC(=O)c2cc3cc([C@H](F)P(=O)(O)O)ccc3s2)C(=O)N2[C@H](CC[C@H]2C(=O)N2CC(c3cnccc3N3CCC3)C2)C1` [Compound 930, ((R)-(2-(((3S,6S,9R,10aR)-3-(3-(4-(azetidin-1-yl)pyridin-3-yl)azetidine-1-carbonyl)-5-oxo-9-propyldecahydro-pyrrolo[1,2-a]azocin-6-yl)carbamoyl)benzo [b]thiophen-5-yl)fluoromethyl) phosphonic acid], the half-maximal inhibitory concentration (IC50) fell in the range of 100 to 1000 nM in test [1] (setting [3]) and 3000 to 30000 nM in test [2] (setting [4]).
Take `CCO[C@@H]1CC[C@H]2CC[C@@H](C(=O)N3CC(C(=O)N4CCOCC4)C3)N2C(=O)[C@@H](NC(=O)c2cc3cc(C(F)(F)P(=O)(O)O)ccc3s2)C1` [Compound 11, ((2-(((3S,6S,8R,10aR)-8-ethoxy-3-(3-(morpholine-4-carbonyl)azetidine-1-carbonyl)-5-oxodecahydropyrrolo [1,2-a]azocin-6-yl)carbamoyl)benzo[b]thiophen-5-yl)difluoromethyl) phosphonic acid]: the IC50 in test [1] (setting [5]) fell in the range of 100 to 1000 nM; in test [2] (STAT6 250 nM, probe 5-FAM-Ap[…]-NH2 2 nM, read-out: STAT6 (FP assay IC50)), 3000 to 30000 nM.
In the case of `O=C(N[C@H]1CCC[C@H]2CC[C@@H](C(=O)N3CC(c4cccnc4)C3)N2C1=O)c1cc2cc([C@H](F)P(=O)(O)O)ccc2s1` [Compound 870, ((R)-fluoro(2-(((3S,6S,9aS)-5-oxo-3-(3-(pyridin-3-yl)azetidine-1-carbonyl)octahydro-1H-pyrrolo[1,2-a]azepin-6-yl)carbamoyl)benzo [b]thiophen-5-yl)methyl) phosphonic acid], the results for the half-inhibitory concentration (IC50) in test [1] (setting [3]) and in test [2] (setting [4]) were less than 100 nM and 3000 to 30000 nM, respectively.
The like results for `C[C@H]1CC[C@H](NC(=O)c2cc3cc(CP(=O)(O)O)ccc3s2)C(=O)N2[C@H](CC[C@H]2C(=O)N2CC(c3cnccc3F)C2)C1` [Compound 585, ((2-(((3S,6S,9S,10aR)-3-(3-(4-fluoropyridin-3-yl)azetidine-1-carbonyl)-9-methyl-5-oxodecahydropyrrolo[1,2-a]azocin-6-yl)carbamoyl)benzo[b]thiophen-5-yl)methyl)phosphonic acid] were, in that order, less than 100 nM and 3000 to 30000 nM.
The like results for `O=C(N[C@H]1CCC[C@H]2CC[C@@H](C(=O)N3CC(n4cc(F)cn4)C3)N2C1=O)c1cc2cc(C(F)P(=O)(O)O)ccc2s1` (stereo partly drawn) [Compound 614, (fluoro(2-(((3S,6S,9aS)-3-(3-(4-fluoro-1H-pyrazol-1-yl)azetidine-1-carbonyl)-5-oxooctahydro-1H-pyrrolo[1,2-a]azepin-6-yl)carbamoyl)benzo [b]thiophen-5-yl)methyl) phosphonic acid] were, in that order, 100 to 1000 nM and 3000 to 30000 nM.

A word on the IC50: it is the concentration at which inhibition is half-maximal.
